The NIST ThermoML archive (doi:10.1021/je050514j)
Numbers after ± are expanded uncertainties.

Assay: xn = mol fraction of the nth substance listed
Conditions: 313.15 K, Fluid (supercritical or subcritical phases)

CCOC(C)=O [ethyl acetate] + O=C=O
mass density [kg/m3]
Conditions | 1000 kPa | 2000 kPa | 3000 kPa | 4000 kPa | 5000 kPa | 6000 kPa | 7000 kPa | 8000 kPa | 9000 kPa | 10000 kPa
x2 = 0 | 876.9 ± 0.4 | 878 ± 0.4 | 878.9 ± 0.4 | 880 ± 0.4 | 881 ± 0.4 | 881.9 ± 0.4 | 882.9 ± 0.5 | 883.9 ± 0.5 | 884.9 ± 0.5 | 885.9 ± 0.5
x2 = 0.1 | 880.2 ± 0.4 | 881.4 ± 0.4 | 882.5 ± 0.4 | 883.7 ± 0.4 | 884.7 ± 0.4 | 885.9 ± 0.4 | 887 ± 0.4 | 888 ± 0.5 | 889.1 ± 0.5 | 890.1 ± 0.5
x2 = 0.2 | – | 884.1 ± 0.4 | 885.4 ± 0.4 | 886.7 ± 0.4 | 887.9 ± 0.4 | 889.2 ± 0.4 | 890.4 ± 0.4 | 891.6 ± 0.4 | 892.7 ± 0.5 | 893.9 ± 0.5
x2 = 0.3 | – | 886.2 ± 0.4 | 887.6 ± 0.4 | 889.1 ± 0.4 | 890.5 ± 0.4 | 891.9 ± 0.4 | 893.3 ± 0.4 | 894.6 ± 0.4 | 896 ± 0.5 | 897.2 ± 0.5
x2 = 0.4 | – | – | 888.8 ± 0.4 | 890.6 ± 0.4 | 892.2 ± 0.4 | 893.9 ± 0.4 | 895.4 ± 0.4 | 897 ± 0.4 | 898.6 ± 0.4 | 900 ± 0.5
x2 = 0.5 | – | – | – | 889.9 ± 0.4 | 891.9 ± 0.4 | 893.9 ± 0.4 | 895.8 ± 0.4 | 897.7 ± 0.4 | 899.6 ± 0.4 | 901.4 ± 0.5
x2 = 0.6 | – | – | – | – | – | 890.1 ± 0.4 | 892.6 ± 0.4 | 895 ± 0.4 | 897.4 ± 0.5 | 899.7 ± 0.5
x2 = 0.7 | – | – | – | – | – | 879.2 ± 1.6 | 882.7 ± 0.5 | 886.2 ± 0.5 | 889.4 ± 0.5 | 892.5 ± 0.5
x2 = 0.8 | – | – | – | – | – | – | 858.2 ± 2.2 | 863.7 ± 0.5 | 869 ± 0.5 | 873.9 ± 0.5
x2 = 0.9 | – | – | – | – | – | – | – | 800.6 ± 3.1 | 813 ± 0.7 | 823.7 ± 0.7
x2 = 0.95 | – | – | – | – | – | – | – | – | 745.6 ± 2 | 767.4 ± 0.9
